Laboratory results taken from the kinase profiling compilation of Christmann-Franck et al. (2016).

Experiments:
Experiment in all cases: radiometric filter-binding kinase assay, Kinase HotSpot
Conditions in all cases: compound 0.5 µM; ATP 10 µM
[1] = target: ADRBK2 (human) (UniProt P35626)
[2] = target: AKT3 (human) (UniProt Q9Y243)
[3] = target: CAMK2B (human) (UniProt Q13554)
[4] = target: CDK6 CCND1 (human) (UniProt Q00534+P24385)
[5] = target: CLK2 (human) (UniProt P49760)
[6] = target: DAPK2 (human) (UniProt Q9UIK4)
[7] = target: DCLK2 (human) (UniProt Q8N568)
[8] = target: DSTYK (human) (UniProt Q6XUX3)
[9] = target: EPHA1 (human) (UniProt P21709)
[10] = target: ERBB2 (human) (UniProt P04626)
[11] = target: GRK5 (human) (UniProt P34947)
[12] = target: IGF1R (human) (UniProt P08069)
[13] = target: INSR (human) (UniProt P06213)
[14] = target: LCK (human) (UniProt P06239)
[15] = target: MAP3K11 (human) (UniProt Q16584)
[16] = target: MAP3K2 (human) (UniProt Q9Y2U5)
[17] = target: MAP3K7 TAB1 (human) (UniProt O43318+Q15750)
[18] = target: MAP3K9 (human) (UniProt P80192)
[19] = target: MAP4K4 (human) (UniProt O95819)
[20] = target: MAPK13 (human) (UniProt O15264)
[21] = target: MARK1 (human) (UniProt Q9P0L2)
[22] = target: MET (human) (UniProt P08581)
[23] = target: MINK1 (human) (UniProt Q8N4C8)
[24] = target: MUSK (human) (UniProt O15146)
[25] = target: MYLK (human) (UniProt Q15746)
[26] = target: NLK (human) (UniProt Q9UBE8)
[27] = target: NTRK2 (human) (UniProt Q16620)
[28] = target: NTRK3 (human) (UniProt Q16288)
[29] = target: PAK1 (human) (UniProt Q13153)
[30] = target: PRKCB2 (human) (UniProt P05771)
[31] = target: PRKCG (human) (UniProt P05129)
[32] = target: PRKD2 (human) (UniProt Q9BZL6)
[33] = target: RPS6KA5 KD2 (human) (UniProt O75582)
[34] = target: SRC (human) (UniProt P12931)
[35] = target: SRPK2 (human) (UniProt P78362)
[36] = target: STK11 (human) (UniProt Q15831)
[37] = target: STK17A (human) (UniProt Q9UEE5)
[38] = target: STK39 (human) (UniProt Q9UEW8)
[39] = target: STK4 (human) (UniProt Q13043)
[40] = target: TEK (human) (UniProt Q02763)
[41] = target: WNK2 (human) (UniProt Q9Y3S1)
[42] = target: STK38 (human) (UniProt Q15208)

Chain of LCK (human) (P06239 whole entry, looked up): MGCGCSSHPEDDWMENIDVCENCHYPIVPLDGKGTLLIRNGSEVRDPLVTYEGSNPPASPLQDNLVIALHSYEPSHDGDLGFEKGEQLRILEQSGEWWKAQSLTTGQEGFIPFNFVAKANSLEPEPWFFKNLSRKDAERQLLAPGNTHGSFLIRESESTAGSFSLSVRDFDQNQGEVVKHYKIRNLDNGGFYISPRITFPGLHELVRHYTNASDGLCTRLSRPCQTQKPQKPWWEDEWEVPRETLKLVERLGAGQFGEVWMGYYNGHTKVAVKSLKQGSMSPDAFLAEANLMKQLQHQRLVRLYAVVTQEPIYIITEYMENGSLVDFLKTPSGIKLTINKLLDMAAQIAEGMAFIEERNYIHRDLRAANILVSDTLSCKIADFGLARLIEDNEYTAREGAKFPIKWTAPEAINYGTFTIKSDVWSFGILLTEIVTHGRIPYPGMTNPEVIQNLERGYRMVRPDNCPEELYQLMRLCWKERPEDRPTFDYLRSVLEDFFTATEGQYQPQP
Chain of MAP3K2 (human) (Q9Y2U5 whole entry, looked up): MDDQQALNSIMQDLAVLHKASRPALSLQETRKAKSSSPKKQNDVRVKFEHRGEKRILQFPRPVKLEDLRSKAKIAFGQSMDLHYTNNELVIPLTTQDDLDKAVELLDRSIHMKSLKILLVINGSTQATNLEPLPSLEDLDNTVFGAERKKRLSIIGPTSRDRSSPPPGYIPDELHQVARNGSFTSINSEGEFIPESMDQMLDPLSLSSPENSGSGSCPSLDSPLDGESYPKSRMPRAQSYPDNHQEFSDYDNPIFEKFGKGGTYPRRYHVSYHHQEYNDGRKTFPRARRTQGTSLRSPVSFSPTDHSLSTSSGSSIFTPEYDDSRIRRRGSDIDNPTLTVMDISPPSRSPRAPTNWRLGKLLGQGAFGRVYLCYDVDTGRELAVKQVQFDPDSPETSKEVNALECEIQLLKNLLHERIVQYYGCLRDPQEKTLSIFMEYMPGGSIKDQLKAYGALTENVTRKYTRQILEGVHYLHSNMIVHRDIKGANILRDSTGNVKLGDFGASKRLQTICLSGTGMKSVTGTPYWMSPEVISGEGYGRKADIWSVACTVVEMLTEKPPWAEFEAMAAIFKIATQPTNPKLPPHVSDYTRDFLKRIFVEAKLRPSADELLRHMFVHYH
Chain of GRK5 (human) (P34947 whole entry, looked up): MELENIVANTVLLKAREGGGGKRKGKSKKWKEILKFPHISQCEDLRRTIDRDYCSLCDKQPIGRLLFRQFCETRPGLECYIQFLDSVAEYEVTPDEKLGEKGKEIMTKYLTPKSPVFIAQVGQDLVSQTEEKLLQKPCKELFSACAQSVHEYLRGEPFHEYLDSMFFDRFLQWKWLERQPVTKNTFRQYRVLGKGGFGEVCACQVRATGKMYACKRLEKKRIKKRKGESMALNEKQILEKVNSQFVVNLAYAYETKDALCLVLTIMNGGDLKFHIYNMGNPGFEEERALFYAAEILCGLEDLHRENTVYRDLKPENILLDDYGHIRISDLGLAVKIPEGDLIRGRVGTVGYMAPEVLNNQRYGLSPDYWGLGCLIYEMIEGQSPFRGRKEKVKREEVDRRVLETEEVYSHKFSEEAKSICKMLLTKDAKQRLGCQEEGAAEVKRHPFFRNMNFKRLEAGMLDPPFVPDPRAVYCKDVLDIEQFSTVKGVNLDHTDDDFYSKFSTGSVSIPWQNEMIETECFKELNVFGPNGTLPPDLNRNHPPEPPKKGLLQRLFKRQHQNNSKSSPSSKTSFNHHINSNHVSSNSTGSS
Chain of MAP3K11 (human) (Q16584 whole entry, looked up): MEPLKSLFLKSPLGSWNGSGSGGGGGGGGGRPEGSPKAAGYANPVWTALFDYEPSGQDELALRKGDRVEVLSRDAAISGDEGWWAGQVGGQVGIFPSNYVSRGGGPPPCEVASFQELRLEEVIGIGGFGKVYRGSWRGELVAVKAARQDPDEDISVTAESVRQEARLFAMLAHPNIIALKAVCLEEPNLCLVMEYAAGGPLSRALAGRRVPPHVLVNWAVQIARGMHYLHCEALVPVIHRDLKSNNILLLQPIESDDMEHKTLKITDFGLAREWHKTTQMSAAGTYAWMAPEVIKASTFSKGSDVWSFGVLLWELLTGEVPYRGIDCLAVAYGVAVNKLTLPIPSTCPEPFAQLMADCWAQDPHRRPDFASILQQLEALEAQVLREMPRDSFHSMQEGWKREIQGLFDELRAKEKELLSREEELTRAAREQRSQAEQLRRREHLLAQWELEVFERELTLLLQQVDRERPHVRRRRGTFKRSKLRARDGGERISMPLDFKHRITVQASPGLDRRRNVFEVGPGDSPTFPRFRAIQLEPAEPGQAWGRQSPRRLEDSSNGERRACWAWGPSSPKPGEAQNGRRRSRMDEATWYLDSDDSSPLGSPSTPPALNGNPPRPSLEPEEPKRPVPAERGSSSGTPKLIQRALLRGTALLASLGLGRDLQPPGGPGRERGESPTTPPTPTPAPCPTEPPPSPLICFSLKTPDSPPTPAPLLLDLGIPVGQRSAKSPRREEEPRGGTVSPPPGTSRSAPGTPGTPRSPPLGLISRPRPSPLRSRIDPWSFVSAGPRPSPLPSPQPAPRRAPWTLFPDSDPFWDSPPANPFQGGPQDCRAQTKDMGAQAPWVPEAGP
Chain of MINK1 (human) (Q8N4C8 whole entry, looked up): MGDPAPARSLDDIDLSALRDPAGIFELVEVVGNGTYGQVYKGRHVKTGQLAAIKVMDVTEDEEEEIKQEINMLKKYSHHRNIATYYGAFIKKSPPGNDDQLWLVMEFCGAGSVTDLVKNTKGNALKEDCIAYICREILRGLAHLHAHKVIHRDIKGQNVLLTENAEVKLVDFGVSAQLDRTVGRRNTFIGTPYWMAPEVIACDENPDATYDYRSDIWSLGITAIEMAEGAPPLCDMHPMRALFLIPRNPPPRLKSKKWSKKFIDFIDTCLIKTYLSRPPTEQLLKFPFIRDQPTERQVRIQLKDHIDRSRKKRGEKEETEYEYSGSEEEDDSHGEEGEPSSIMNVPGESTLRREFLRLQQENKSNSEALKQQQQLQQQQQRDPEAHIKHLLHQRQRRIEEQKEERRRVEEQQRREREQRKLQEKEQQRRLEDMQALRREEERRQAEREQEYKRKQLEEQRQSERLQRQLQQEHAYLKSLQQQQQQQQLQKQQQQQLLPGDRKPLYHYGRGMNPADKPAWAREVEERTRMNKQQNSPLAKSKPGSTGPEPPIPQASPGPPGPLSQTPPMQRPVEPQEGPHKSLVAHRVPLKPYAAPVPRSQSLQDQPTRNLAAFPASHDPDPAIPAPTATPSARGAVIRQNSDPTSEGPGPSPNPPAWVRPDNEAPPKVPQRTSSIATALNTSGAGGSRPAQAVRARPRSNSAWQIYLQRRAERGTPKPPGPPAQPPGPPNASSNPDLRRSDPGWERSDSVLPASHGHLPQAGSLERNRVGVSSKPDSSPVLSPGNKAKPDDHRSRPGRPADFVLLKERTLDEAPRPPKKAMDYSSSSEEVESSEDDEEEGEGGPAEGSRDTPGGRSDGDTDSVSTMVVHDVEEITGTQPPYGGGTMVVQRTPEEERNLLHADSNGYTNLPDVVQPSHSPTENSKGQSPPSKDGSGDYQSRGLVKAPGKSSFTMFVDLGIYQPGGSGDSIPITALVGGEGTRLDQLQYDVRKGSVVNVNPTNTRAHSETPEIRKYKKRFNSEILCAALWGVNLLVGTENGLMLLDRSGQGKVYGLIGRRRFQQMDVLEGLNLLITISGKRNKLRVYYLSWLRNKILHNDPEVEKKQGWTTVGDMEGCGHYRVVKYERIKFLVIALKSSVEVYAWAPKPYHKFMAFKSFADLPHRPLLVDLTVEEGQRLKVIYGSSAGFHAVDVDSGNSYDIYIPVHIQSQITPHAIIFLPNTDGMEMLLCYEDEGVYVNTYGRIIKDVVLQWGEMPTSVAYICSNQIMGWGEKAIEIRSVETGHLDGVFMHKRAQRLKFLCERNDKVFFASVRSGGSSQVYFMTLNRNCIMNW
Chain of PAK1 (human) (Q13153 whole entry, looked up): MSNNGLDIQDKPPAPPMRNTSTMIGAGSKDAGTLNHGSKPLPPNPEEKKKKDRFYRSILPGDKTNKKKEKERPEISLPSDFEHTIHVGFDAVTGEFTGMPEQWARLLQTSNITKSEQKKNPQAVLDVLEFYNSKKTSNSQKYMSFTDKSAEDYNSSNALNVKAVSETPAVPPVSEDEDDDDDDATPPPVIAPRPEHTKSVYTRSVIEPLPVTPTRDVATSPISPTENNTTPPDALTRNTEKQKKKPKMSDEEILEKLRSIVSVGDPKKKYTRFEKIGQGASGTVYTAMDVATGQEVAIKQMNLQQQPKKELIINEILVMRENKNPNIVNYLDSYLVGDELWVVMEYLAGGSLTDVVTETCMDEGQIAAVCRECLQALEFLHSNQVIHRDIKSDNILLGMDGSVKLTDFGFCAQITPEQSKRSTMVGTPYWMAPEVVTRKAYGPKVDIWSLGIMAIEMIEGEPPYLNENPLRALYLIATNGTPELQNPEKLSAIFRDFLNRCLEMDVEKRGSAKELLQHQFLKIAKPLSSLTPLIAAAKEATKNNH
Chain of CLK2 (human) (P49760 whole entry, looked up): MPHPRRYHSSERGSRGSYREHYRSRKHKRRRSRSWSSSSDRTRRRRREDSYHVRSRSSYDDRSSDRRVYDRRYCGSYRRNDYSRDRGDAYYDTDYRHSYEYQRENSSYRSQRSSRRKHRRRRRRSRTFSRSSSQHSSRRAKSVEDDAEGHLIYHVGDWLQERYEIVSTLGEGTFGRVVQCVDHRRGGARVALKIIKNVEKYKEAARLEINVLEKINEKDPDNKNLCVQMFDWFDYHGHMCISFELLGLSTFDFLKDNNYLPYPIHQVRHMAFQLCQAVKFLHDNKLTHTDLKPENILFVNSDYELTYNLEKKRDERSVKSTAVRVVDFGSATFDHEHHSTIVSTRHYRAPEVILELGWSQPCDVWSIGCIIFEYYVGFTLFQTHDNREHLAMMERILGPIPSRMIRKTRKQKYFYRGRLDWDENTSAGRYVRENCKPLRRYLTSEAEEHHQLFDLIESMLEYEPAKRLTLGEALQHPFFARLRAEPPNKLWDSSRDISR

Molecule CC(=O)c1ccc(N2CCOCC2)cc1O has a residual activity [1] of 89.1%, a residual activity [2] of 107% and a residual activity [3] of 105%. It also gave a residual activity [4] of 99.3%, a residual activity [5] of 102% and a residual activity [6] of 106%. The residual activity [7] was 101%, the residual activity [8] was 95.3% and the residual activity [9] was 94%. For the same molecule, the residual activity [10] was 98.2%, the residual activity [11] was 108% and the residual activity [12] was 106%. For the same molecule, the residual activity [13] was 94%, the residual activity [14] was 100% and the residual activity [15] was 94.8%. The residual activity [16] was 109%, the residual activity [17] was 98.6% and the residual activity [18] was 112%. The residual activity [19] was 96.9%, the residual activity [20] was 104% and the residual activity [21] was 96.7%. The residual activity [22] was 122%, the residual activity [23] was 94.3% and the residual activity [24] was 93.9%. It also gave a residual activity [25] of 91.1%, a residual activity [26] of 95.6% and a residual activity [27] of 92.1%. The residual activity [28] was 101%, the residual activity [29] was 93.7% and the residual activity [30] was 97.9%. The residual activity [31] was 98.7%, the residual activity [32] was 97.4% and the residual activity [33] was 105%. The residual activity [34] was 104%, the residual activity [35] was 98.6% and the residual activity [36] was 103%. For the same molecule, the residual activity [37] was 95.9%, the residual activity [38] was 90.9% and the residual activity [39] was 102%. For the same molecule, the residual activity [40] was 101% and the residual activity [41] was 101%.
With CNC(=O)c1cc(Oc2ccc(NC(=O)Nc3ccc(Cl)c(C(F)(F)F)c3)cc2)ccn1 the residual activity [1] was 98.4%, the residual activity [2] was 94.2% and the residual activity [3] was 96.7%. It also gave a residual activity [4] of 91.8%, a residual activity [5] of 92.8% and a residual activity [6] of 111%. For the same molecule, the residual activity [7] was 102%, the residual activity [8] was 97.7% and the residual activity [9] was 87.7%. The residual activity [10] was 103%, the residual activity [11] was 97.8% and the residual activity [12] was 94.3%. For the same molecule, the residual activity [13] was 106%, the residual activity [15] was 98.3% and the residual activity [16] was 109%. The residual activity [17] was 101%, the residual activity [18] was 103% and the residual activity [19] was 96.1%. It also gave a residual activity [20] of 97.5%, a residual activity [21] of 80.3% and a residual activity [22] of 105%. The residual activity [23] was 108%, the residual activity [24] was 101% and the residual activity [25] was 93.7%. The residual activity [26] was 99.1%, the residual activity [27] was 90% and the residual activity [29] was 108%. The residual activity [30] was 97.5%, the residual activity [31] was 94.7% and the residual activity [32] was 96.2%. For the same molecule, the residual activity [33] was 102%, the residual activity [35] was 102% and the residual activity [36] was 104%. It also gave a residual activity [37] of 96%, a residual activity [42] of 99.8% and a residual activity [38] of 95.7%. The residual activity [39] was 101%, the residual activity [40] was 104% and the residual activity [41] was 101%.
CCN(CC)C(=O)c1ccc(Nc2nc(OCC3CCCCC3)c3nc[nH]c3n2)cc1 was tested, and the residual activity [1] was 92.7%, the residual activity [2] was 101% and the residual activity [3] was 97.6%. For the same molecule, the residual activity [4] was 52.9%, the residual activity [5] was 40.6% and the residual activity [6] was 91.7%. For the same molecule, the residual activity [7] was 97.3%, the residual activity [8] was 106% and the residual activity [9] was 90.2%. For the same molecule, the residual activity [10] was 99.4%, the residual activity [11] was 98.8% and the residual activity [12] was 28.4%. The residual activity [13] was 92.8%, the residual activity [14] was 39.8% and the residual activity [15] was 5.55%. For the same molecule, the residual activity [16] was 25.3%, the residual activity [17] was 57.1% and the residual activity [18] was 3.8%. It also gave a residual activity [19] of 85.9%, a residual activity [20] of 95.3% and a residual activity [21] of 82.7%. The residual activity [22] was 85.3%, the residual activity [23] was 88.5% and the residual activity [24] was 77.5%. The residual activity [25] was 91.6%, the residual activity [26] was 94.5% and the residual activity [27] was 54.3%. The residual activity [28] was 32.3%, the residual activity [29] was 93.8% and the residual activity [30] was 95%. It also gave a residual activity [31] of 94.5%, a residual activity [32] of 67% and a residual activity [33] of 89.8%. For the same molecule, the residual activity [34] was 72.8%, the residual activity [35] was 87.8% and the residual activity [36] was 85.2%. It also gave a residual activity [37] of 59.8%, a residual activity [38] of 91.5% and a residual activity [39] of 46.3%. The residual activity [40] was 95.4% and the residual activity [41] was 88.6%.
With CCN(CC)CCNC(=O)c1c(C)[nH]c(/C=C2\C(=O)Nc3ccc(F)cc32)c1C the residual activity [1] was 94.8%, the residual activity [2] was 71.7% and the residual activity [3] was 46.7%. The residual activity [4] was 50.5%, the residual activity [5] was 13.6% and the residual activity [7] was 85%. It also gave a residual activity [8] of 111%, a residual activity [9] of 95.1% and a residual activity [10] of 105%. For the same molecule, the residual activity [12] was 62.6%, the residual activity [15] was 68.4% and the residual activity [16] was 51.9%. For the same molecule, the residual activity [17] was 18.6%, the residual activity [19] was 12.4% and the residual activity [20] was 92.4%. The residual activity [21] was 40.9%, the residual activity [22] was 91% and the residual activity [23] was 10.5%. For the same molecule, the residual activity [24] was 51.3%, the residual activity [25] was 25.6% and the residual activity [26] was 105%. For the same molecule, the residual activity [27] was 9.78%, the residual activity [29] was 118% and the residual activity [30] was 104%. It also gave a residual activity [31] of 83.8%, a residual activity [32] of 21.1% and a residual activity [33] of 60.1%. The residual activity [35] was 95%, the residual activity [36] was 97.2% and the residual activity [37] was 26.7%. It also gave a residual activity [42] of 93.8%, a residual activity [38] of 87.4% and a residual activity [39] of 10.7%. For the same molecule, the residual activity [40] was 88.6% and the residual activity [41] was 100%.
For CC#CC(=O)Nc1cc2c(Nc3ccc(F)c(Cl)c3)ncnc2cn1, the residual activity [1] was 103%, the residual activity [2] was 97.8% and the residual activity [3] was 99.6%. For the same molecule, the residual activity [4] was 99%, the residual activity [5] was 100% and the residual activity [6] was 105%. It also gave a residual activity [7] of 102%, a residual activity [8] of 91.1% and a residual activity [9] of 88.3%. It also gave a residual activity [10] of 2.36%, a residual activity [11] of 105% and a residual activity [12] of 100%. It also gave a residual activity [13] of 99.6%, a residual activity [14] of 92.2% and a residual activity [15] of 99.3%. It also gave a residual activity [16] of 107%, a residual activity [17] of 100% and a residual activity [18] of 95.8%. For the same molecule, the residual activity [19] was 110%, the residual activity [20] was 105% and the residual activity [21] was 98.2%. It also gave a residual activity [22] of 96.3%, a residual activity [23] of 91.9% and a residual activity [24] of 79.6%. For the same molecule, the residual activity [25] was 98.8%, the residual activity [26] was 99.7% and the residual activity [27] was 100%. The residual activity [28] was 95.3%, the residual activity [29] was 94.5% and the residual activity [30] was 99.5%. The residual activity [31] was 97.2%, the residual activity [32] was 97.6% and the residual activity [33] was 103%. The residual activity [34] was 97.7%, the residual activity [35] was 69.2% and the residual activity [36] was 99.6%. For the same molecule, the residual activity [37] was 92.9%, the residual activity [38] was 91.3% and the residual activity [39] was 98.7%. It also gave a residual activity [40] of 99.7% and a residual activity [41] of 107%.
